Data reported in US12337010B2, “Compositions and methods of treatment using nicotinamide mononucleotide” (Washington University, priority 2017, dated 2025).

How the values were obtained:
Slc12a8 mRNA expression = Slc12a8 mRNA expression by quantitative RT-PCR in cells and ex vivo small intestine explants; type: cell-based, mouse; conditions: FK866 plus NMN; primary hepatocytes, NIH3T3 fibroblasts (24 h), jejunum and ileum explants (4 h)
Method: Cell culture and ex vivo small intestine explant culture. […] For Slc12a8 mRNA expression analysis, 2.5×10^5 cells per well were incubated in 6-well plates with DMEM with 1% FBS containing 0.1% DMSO or 100 nM FK866 or 100 nM FK866 plus 100 μM NMN for 24 h. Small intestines from 3-month old B6 male mice were cut into three segments with duodenum/jejunum/ileum length ratios of 1:3:2 (Wang, H. H., et al., Hepatology 45, 998-1006, 2007). […] Cellular and tissue RNA samples were analyzed by quantitative RT-PCR, as described previously (Stein, L. R. & Imai, S., EMBO J., 33, 1321-1340, 2014).
(§1) The amounts of adenosine produced were determined by HPLC. […] Silencing efficiencies were evaluated by quantitative RT-PCR.
FIG. 2 illustrates that Slc12a8 is highly expressed in the small intestine and pancreas and moderately in the liver and white adipose tissue of B6 male mice at 3 months of age (n=3 mice). […] Cells were treated with these compounds for 24 h (n=4 mice for hepatocytes treated with DMSO and FK866, and n=3 mice for hepatocytes treated with FK866 and NMN; n=6 for NIH3T3 cells; analyzed using ANOVA with Tukey's test). FIG. 5 illustrates surface and intracellular Slc12a8 protein expression levels were measured by flow cytometry analysis in NIH3T3 cells treated with FK866 or FK866 plus NMN for 48h. […]

[1] = tested on: primary mouse hepatocytes; experiment: NMN uptake in primary mouse hepatocytes, intracellular NMN by HPLC; type: cell-based
Method: as §1
Primary mouse hepatocytes were pretreated with 500 nM FK866 for 24 h and then incubated with a cocktail of 20 μM dipyridamole, 500 μM AOPCP, and 500 nM FK866, with or without 100 μM NMN. NMN was measured by HPLC (n=4 mice, except for 3 data sets for 15 and 30 minute time points for inhibitors only; analyzed using ANOVA with Sidak's test).
To measure the knockdown efficiencies of Slc12a8 and Nrk1 mRNA in primary mouse hepatocytes, cells were treated with scramble and Slc12a8 or Nrk1 siRNA for 72 h (n=5 mice for Slc12a8 silencing and n=3 for Nrk1 silencing; analyzed by unpaired […] t-test). Without being limited by theory, these conditions knocked down expression of Slc12a8 and Nrk1, a major NR kinase that converts NR to NMN intracellularly (Belenky, P., et al., Cell, 129, 473-484, 2007). Primary hepatocytes treated with scramble, Slc12a8, and Nrk1 siRNA were assayed at 1 min after addition of 100 μM NMN via HPLC. Culture conditions were the same as described in Example 3 (n=5 mice for Slc12a8 silencing and n=3 for Nrk1 silencing; analyzed by ANOVA with Tukey's test). The knockdown efficiencies for both genes are approximately 80% (FIG. 7).

[2] = Jejunum NAD+ levels 60 min after oral gavage of NMN; type: in vivo, mouse; conditions: 60 min after oral gavage (500 mg/kg), Slc12a8-knockdown mice compared to control mice
Source text: In vivo Slc12a8 knockdown experiment. To generate shRNA-expressing lentiviral constructs, 56-bp double-stranded oligonucleotides, each of which contains a sense target sequence, a microRNA-based loop sequence ([…]; SEQ ID NO: 4), an antisense sequence, a termination sequence of four thymidines, and appropriate restriction enzyme sites at both ends, were generated for mouse Slc12a8 and firefly luciferase (fLuc) and cloned into the U6-PGK-GFP vector provided by the Viral Vectors Core at Washington University School of Medicine. The sense Slc12a8 sequence is ‘5-[…]-3’ (SEQ ID NO: 5). Lentiviruses were produced as previously described (Satoh, A. et al., Cell Metab., 18, 416-430, 2013). Knockdown efficiency was tested using primary intestinal cultures (Sato, T. & Clevers, H., Methods Mol. Biol. 945, 319-328, 2013). Large-scale lentivirus production was carried on by the Viral Vectors Core at the Hope Center for Neurological Disorders at Washington University. […]
Lentiviruses carrying control firefly luciferase (fLuc) shRNA and Slc12a8 shRNA were generated as described supra. […] Slc12a8 protein expression levels in control shfLuc lentivirus- and shSlc12a8 lentivirus-infected jejunum and ileum samples were measured through Western blots (FIG. 17). […] Then NAD+ levels were measured by HPLC in these samples (analyzed by ANOVA with Tukey's test).

With `NC(=O)c1ccc[n+]([C@@H]2O[C@H](COP(=O)([O-])O)[C@@H](O)[C@H]2O)c1` [NMN, nicotinamide mononucleotide] the “Slc12a8 expression induced by FK866” value (Slc12a8 mRNA expression) was “suppressed”, the “intracellular NMN levels” value ([1]; 100 μM NMN with 20 μM dipyridamole, 500 μM AOPCP, 500 nM FK866, 1 min time point vs control) was “significantly increase” and the NMN uptake ([1]; Nrk1-knockdown hepatocytes, 1 min after 100 μM NMN) was “no significant reduction”. For the same molecule, the “fast uptake of NMN” value ([1]; Slc12a8-knockdown hepatocytes, 1 min after 100 μM NMN) was “completely abrogated” and the “NAD+ levels in the jejunum” value [2] was “significantly decreased”.
